The record followed here is patent US10329262B2, “Quinazolinone antibiotics” (priority 2013, dated 2019).

Entries after “also recorded” stand apart in the source; their conditions may differ. Where two headings read alike, the source gives them in different places.

In one data set the test system is S. aureus NRS120. Description: MIC, CLSI broth microdilution, S. aureus NRS120. It counts as cell-based, Staphylococcus aureus. On the procedure: (§1) MICs were evaluated following the CLSI microdilution method in BBL™ Mueller-Hinton II broth (Wikler et al., Clinical Laboratory Standards Institute Document M7-A7, 29 (2009)). Briefly, two-fold serial dilutions of compound were prepared in triplicate in 96-well plates and inoculated with 5×10^5 cfu/mL of the bacterial suspension. Plates were incubated at 37° C. for 16-20 hours.
For orientation: Dilution methods test growth across graded concentrations, often in twofold steps.

For the next data set, the system named is S. aureus NRS100. Description: MIC, CLSI broth microdilution, S. aureus NRS100. It counts as cell-based, Staphylococcus aureus. The method, then:
as §1

Data set [1] has as its system E. coli S30 extract system. The experiment in a line: In vitro translation assay (E. coli S30 extract, β-galactosidase). It counts as biochemical. Conditions: up to 64 μg/mL. From the text: For in vitro translation, the E. coli S30 Extract System for Circular DNA was used to set up the reactions using plasmid pCP19 containing the lacZ gene for β-galactosidase. Reaction mixtures were supplemented with two-fold dilutions of antibiotic 2 and the β-Galactosidase Enzyme Assay System with Reporter Lysis Buffer was used to quantify the amount of β-galactosidase translated by measuring absorbance at 420 nm. For in vitro transcription, a TranscriptAid T7 High Yield Transcription kit was used with a pET24a/dacB DNA construct under the T7 promoter. The purified plasmid was linearized using the restriction endonuclease XhoI and then purified according to the manufacturer's instructions. A series of samples were prepared and supplemented with two-fold dilutions of antibiotic 2. Samples were analyzed by running on a denaturing 1% formaldehyde agarose gel and stained with ethidium bromide to visualize RNA. Intensities of the bands were quantified and compared to the control to determine the amount of transcription occurring in the presence of 2.

A further data set concerns S. aureus NRS123. Description: MIC, broth microdilution, S. aureus NRS123. The settings on record: Staphylococcus aureus. In kind it is cell-based. On the procedure:
as §1

Data set [2] relates to S. aureus ATCC 29213 (MSSA). Description: MIC, CLSI broth microdilution, S. aureus ATCC 29213. It counts as cell-based, Staphylococcus aureus. On the procedure: as §1
Data set [3] can be described thus: Plasma protein binding, rapid equilibrium dialysis, human. Conditions: humans, 10 μM, 6 h dialysis. In kind it is in vitro ADME. The method, then: Aliquots from both chambers were quenched with 1:2 v/v acetonitrile containing an internal standard. The samples were concentrated to dryness on a miVac concentrator and the residue resuspended in 50:50 acetonitrile/water. Samples were analyzed by reverse-phase ultraperformance liquid chromatography (UPLC) with UV/Vis detection. Plasma protein binding of quinazolinone 2 was 98.0±0.04% in mice and 96.5±0.70% in humans.
In general terms: In equilibrium dialysis free small molecules cross a membrane that holds back macromolecules.

In a further data set the test system is S. aureus NRS119. The experiment in a line: MIC, CLSI broth microdilution, S. aureus NRS119. It counts as cell-based, Staphylococcus aureus. On the procedure:
as §1

For the next data set, the target named is T1, PBP2a allosteric site (Staphylococcus aureus, UniProt Q53707).
T1 construct: made in house
The experiment in a line: Intrinsic fluorescence quenching of oxacillin-acylated PBP2a. It counts as binding, S. aureus. The method, then:
FIG. 11. Binding of quinazolinone 2 to PBP2a allosteric site. […] (a) The change in the maximum fluorescence intensity was calculated as the difference compared to the intensity in the absence of compound. Any dilution effect was subtracted out using a buffer titration control. […] A nonlinear regression was used to fit the data, with an R^2 of 0.9997. (b) Emission scans of PBP2a intrinsic fluorescence with excitation at 280 nm. Antibiotic 2 was titrated in to give the final concentrations shown and 3 scans (1 min cycles) were averaged for each titration.
Therefore, we have evidence for binding of antibiotic 2 to the allosteric site (X-ray) and to the active site (kinetic assays for competitive inhibition and X-ray altered conformations for the active-site residues) of PBP2a). Binding of antibiotic 2 at the allosteric site induces conformational changes at the active site (FIG. 7B). All of these movements serve to double the area and the volume of the active site.
Therefore, we have evidence for binding of the antibiotic 2 to the allosteric site (X-ray) and to the active site (kinetic assays for competitive inhibition and X-ray altered conformations for the active-site residues) of PBP2a. Binding of antibiotic 2 at the allosteric site induces conformational changes at the active site (FIG. 7b). All of these movements serve to double the area and volume of the active site.

In data set [4] the test system is S. haemolyticus ATCC 29970. Description: MIC, CLSI broth microdilution, S. haemolyticus ATCC 29970. It counts as cell-based. The method, then: as §1
Another data set deals with T2, PBP2a (Staphylococcus aureus, UniProt Q53707).
T2 construct: PBP2a was purified using a previously described protocol (Fuda et al., J. Biol. Chem. 279, 40802-40806 (2004)); made in house
The experiment in a line: Bocillin FL competition assay, purified recombinant PBP2a. It counts as binding, S. aureus. From the text:
We next explored if it would inhibit purified recombinant PBP2a by a competition assay with Bocillin FL, a fluorescent penicillin reporter reagent. We purified PBP2a for this study using a previously described protocol from the laboratory of Prof. Mobashery (Fuda et al., J. Biol. Chem. 2004, 279, 40802-40806). This inhibition assay for PBPs has the limitation in that Bocillin FL is a covalent modifier of the active site of PBPs and the equilibrium is inexorably in favor of the irreversible acylation of the active-site serine by the reporter molecule. As such, the degree of inhibition by the non-covalent inhibitor (e.g., 2) will be underestimated.
This inhibition assay for PBPs has the limitation in that Bocillin FL is a covalent modifier of the active site of PBPs and the equilibrium is inexorably in favor of the irreversible acylation of the active-site serine by the reporter molecule. As such, the degree of inhibition by the non-covalent inhibitor (e.g., 2) will be underestimated. This is what was seen.
The Bocillin FL competition assays were performed with purified PBP2a and membrane extracts. […] Samples were centrifuged, loaded to SDS-PAGE, the gels were visualized immediately using a Storm840 Scanner, and fluorescence was quantified using ImageQuant software. IC50 values were calculated using GraphPad prism 5, using the previously published equation.

For the next data set, the system named is S. aureus NRS70. The experiment in a line: MIC, broth microdilution, S. aureus NRS70. It counts as cell-based, Staphylococcus aureus. The settings on record: for MIC: Staphylococcus aureus. On the procedure: as §1

T1 sequence (Q53707 entry or part of it): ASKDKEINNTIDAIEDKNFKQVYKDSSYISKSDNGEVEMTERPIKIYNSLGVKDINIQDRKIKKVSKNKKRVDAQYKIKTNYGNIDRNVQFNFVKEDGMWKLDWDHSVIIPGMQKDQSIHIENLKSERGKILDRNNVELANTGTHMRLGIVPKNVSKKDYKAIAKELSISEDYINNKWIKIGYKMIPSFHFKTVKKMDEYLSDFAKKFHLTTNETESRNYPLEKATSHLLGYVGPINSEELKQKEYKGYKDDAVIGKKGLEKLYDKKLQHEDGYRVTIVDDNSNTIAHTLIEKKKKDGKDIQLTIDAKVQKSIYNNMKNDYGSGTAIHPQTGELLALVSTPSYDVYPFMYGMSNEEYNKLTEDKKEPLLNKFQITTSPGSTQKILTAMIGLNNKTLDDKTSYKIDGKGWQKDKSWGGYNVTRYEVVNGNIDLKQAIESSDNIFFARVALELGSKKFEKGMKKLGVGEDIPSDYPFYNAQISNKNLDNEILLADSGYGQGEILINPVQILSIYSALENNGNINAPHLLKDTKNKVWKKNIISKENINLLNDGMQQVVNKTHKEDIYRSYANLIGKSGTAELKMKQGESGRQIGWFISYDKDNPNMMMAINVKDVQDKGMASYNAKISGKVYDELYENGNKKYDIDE
T2 sequence (Q53707 entry or part of it): as above

A word on the MIC: it is the smallest concentration in the dilution series that meets the test's criterion for growth inhibition. A word on the Kd: it is the concentration at which binding is half-saturated. Low readings indicate tighter binding, high ones weaker binding. Broadly, the IC50 is the concentration that gives 50% inhibition. For the molecule `N#Cc1ccc(/C=C/c2nc3ccccc3c(=O)n2-c2cccc(C(=O)O)c2)cc1.[Na]` [Compound 2, Sodium (E)-3-(3-carboxyphenyl)-2-(4-cyanostyryl)quinazolin-4(3H)-one], the MIC in the data set with S. aureus NRS120 (Staphylococcus aureus, NRS120) is 8 µg/mL; against S. aureus NRS100 (Staphylococcus aureus, NRS100), 16 µg/mL; against S. aureus NRS123 (NRS123), 2 µg/mL; with S. aureus NRS123 (NRS123, read-out: MIC NRS123), 4 µg/mL; in data set [2] (Staphylococcus aureus), 2 µg/mL; against S. aureus NRS119 (Staphylococcus aureus, NRS119), 8 µg/mL. Also, the MIC in data set [4] (Staphylococcus haemolyticus, ATCC29970) amounted to 1 µg/mL; in the data set with S. aureus NRS70 (NRS70) it was 2 µg/mL; with S. aureus NRS70 (NRS70, read-out: MIC NRS70), 4 µg/mL. Besides, the In vitro AB activity (MIC) in the data set with S. aureus NRS120 (Table 2.1, S. aureus NRS120) was 8 µg/mL; with S. aureus NRS100 (Table 2.1, S. aureus NRS100), 16 µg/mL; in [2] (Table 2.1, S. aureus ATCC 29213), 2 µg/mL; with S. aureus NRS119 (Table 2.1, S. aureus NRS119), 8 µg/mL; in data set [4] (Table 2.1, S. haemolyticus ATCC 29970), 1 µg/mL; in the data set with S. aureus NRS70 (Table 2.1, S. aureus NRS70), 2 µg/mL. In addition, the “Inhibition of in vitro translation” value in [1] is recorded as “did not show any inhibition; also recorded: No inhibition”. Moreover, the “Increase of MIC in the presence of BSA” value in data set [2] (with BSA vs without) was 4 fold. Besides, the Plasma protein binding in data set [3] is listed as 96.5±0.70%. Further, the Kd on PBP2a allosteric site is 16.3 µM. The IC50 on PBP2a is 336 µM.
